Results on four compounds are retold here after article PMC3240648, “Inhibition of Influenza A Virus (H1N1) Fusion by Benzenesulfonamide Derivatives Targeting Viral Hemagglutinin” (PLoS ONE, 2011).

For data set [1], the target named is Bromelain-cleaved HA (BHA) (Influenza A virus (H1N1), UniProt Q0HD60). The class given is biochemical.
Data set [2] concerns Influenza A/PR/8/34 (H1N1). In words: microbe, parasite or virus in culture. The class given is cell-based. As to conditions: MDCK, 72 h, read-out: CPE (EC50) A/PR/8/34 (H1N1).
The subject of data set [3] is Influenza A/New Jersey/8/76 (H1N1). Nature of the data set: microbe, parasite or virus in culture. It counts as cell-based. As to conditions: H1N1, MDCK, 72 h, read-out: CPE (EC50) A/New Jersey/8/76 (H1N1).
The subject of data set [4] is Influenza A/Mal/302/54 (H1N1). In words: microbe, parasite or virus in culture. The class given is cell-based. As to conditions: H1N1, MDCK, 72 h, read-out: CPE (EC50) A/Mal/302/54 (H1N1).
Data set [5] concerns Influenza A/Human/Hubei/3/2005 (H3N2). Nature of the data set: microbe, parasite or virus in culture. As to conditions: for EC50: Influenza A virus, H3N2, MDCK, 72 h, read-out: CPE (EC50) A/Human/Hubei/3/2005 (H3N2). The class given is cell-based, Influenza A virus.
For data set [6], the system named is influenza virus. Nature of the data set: microbe, parasite or virus in culture. As to conditions: unidentified influenza virus, read-out: in vitro EC90. The class given is cell-based.
The test system of data set [7] is Influenza A/Hongkong/8/68 (H3N2). In words: microbe, parasite or virus in culture. The class given is cell-based, Influenza A virus. As to conditions: for EC50: Influenza A virus, H3N2, MDCK, 72 h, read-out: CPE (EC50) A/Hongkong/8/68 (H3N2).
The nature of data set [8]: Repeated oral dosing of mice without virus challenge (survival, body weight). It counts as in vivo. As to conditions: 200 mg/kg and 50 mg/kg orally twice a day for 7 days, monitored 14 days. The text has this: Survival of the treated animals and body weight were monitored for 14 days starting from the first day of compound dosing.
The conditions of data set [9]: mouse, in vivo.
The nature of the next data set: in vivo. As to conditions: male, CD-1, mouse.
The subject of data set [10] is influenza virus. The class given is cell-based. As to conditions: for reduction of virus yield: 3.16 µM, 48 hours, MDCK, TCID50.
Data set [11] deals with hemagglutinin of influenza virus (Influenza A virus (H1N1), UniProt Q0HD60). The class given is cell-based. As to conditions: for effect on hemolysis (negative controls): data not shown.
The test system of data set [12] is viral hemagglutinin binding to sialic acid receptors of chicken erythrocytes. It counts as cell-based, influenza virus. As to conditions: 10 µM, regardless of viral dilution; data not shown.
The test system of data set [13] is Influenza A/Weiss/43 (H1N1). The class given is cell-based, Influenza A virus.
Data set [14] has as its system Influenza A/Weiss/43 (H1N1). The class given is cell-based, Influenza A virus. This is another data set of the same source.

“Also recorded” adds a separate entry of the source. A value given as a limit tells only on which side of the number the result lay.

Bromelain-cleaved HA (BHA), sequence (Q0HD60 18-343, added parts left off): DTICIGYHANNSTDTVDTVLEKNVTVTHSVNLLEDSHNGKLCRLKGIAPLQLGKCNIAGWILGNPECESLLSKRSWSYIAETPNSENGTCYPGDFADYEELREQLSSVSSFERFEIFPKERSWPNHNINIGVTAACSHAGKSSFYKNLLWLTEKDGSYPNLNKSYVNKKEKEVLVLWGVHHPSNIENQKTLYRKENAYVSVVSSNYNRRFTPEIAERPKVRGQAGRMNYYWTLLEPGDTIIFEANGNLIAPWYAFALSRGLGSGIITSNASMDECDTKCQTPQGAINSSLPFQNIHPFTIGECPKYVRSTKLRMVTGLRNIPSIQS
hemagglutinin of influenza virus, sequence (Q0HD60 18-343, added parts left off): as above

As for `CC1(C)C[C@H](O)C[C@](C)(CNc2ccc(Cl)c(S(N)(=O)=O)c2)C1` [RO5487624], the BHA trypsin sensitivity result in data set [1] is given as “+”. Moreover, in data set [1], the “protection of BHA from trypsin digestion after acidification” value (shortened to “protection of BHA from trypsin digestion”) was “completely protected HA from trypsin digestion”. The EC50 in [2] is 210 nM; in [3], 90 nM; in data set [4], 450 nM; in data set [5], > 100000 nM; in [7], > 100000 nM. Besides, the EC90 in the data set on influenza virus [6] amounted to 300 nM. In data set [8], the “animal death and body weight changes” value is “did not find any animal death and statistically significant body weight changes”. Also, the “C max and AUC in plasma versus oral dose” value in data set [9] was “increased in a dose-dependent manner”. The bioavailability in “in vivo” was > 70%. The compound further registered an AUC(0-inf) in “in vivo” (iv, 2 mg/kg) of 629 ng·h/mL. In “in vivo” (iv, 2 mg/kg), this compound had an AUC(0-t) of 587 ng·h/mL.
On to `CCOC(=O)C1=C[C@@H](OC(CC)CC)[C@H](NC(C)=O)[C@@H](N)C1` [Oseltamivir], for which, in the data set with influenza virus [10], the “reduction of virus yield” value stood at 5 log. The “effect on hemolysis (negative controls)” value in data set [11] is reported as “did not show any effect on hemolysis”.
For `CC1(C)CC(O)CC(C)(CNc2cccc(S(N)(=O)=O)c2)C1` (stereo not shown) [RO5464466, 3-[(5-Hydroxy-1,3,3-trimethyl-cyclohexylmethyl)-amino]-benzenesulfonamide], in [12], the “inhibitory effect on hemagglutination” value is on record as “did not have an inhibitory effect on hemagglutination”. Moreover, in the data set with influenza virus [10], the “dynamics of progeny virus production” value was “strong inhibition at all time points” and the “reduction of virus yield” value is listed as 8 log. Also, in data set [1], the BHA trypsin sensitivity entry is reported as “+”; the “protection of BHA from trypsin digestion” value was “completely protected HA from trypsin digestion”; the “protection of BHA from trypsin-caused degradation at different pH” value is given as “effectively protected BHA from trypsin-caused degradation throughout the tested pH values, except pH 4.5”. Moreover, the EC50 in data set [2] turned out to be 580 nM. For the same compound, in [4], the EC50 came to 660 nM. The HA-mediated hemolysis result in data set [11] (10 µM, pH 5.03, 5.05, 5.1 and 5.2) is recorded as “completely blocked”. Besides, in [5], the “inhibitory effect on replication of A/Human/Hubei/3/2005 (H3N2) in CPE assay” value is “failed to exhibit an apparent inhibitory effect” and the EC50 was > 100000 nM. For the same compound, in data set [7], the “inhibitory effect on replication of A/Hongkong/8/68 (H3N2) in CPE assay” value was “failed to exhibit an apparent inhibitory effect” and the EC50 is > 100000 nM. Besides, in data set [13], the “effect on virus replication in one cycle” value is “completely blocks virus replication”. Also, in data set [14], the plaque formation entry was “completely protected cell monolayer against cell death (no visible plaques); also recorded: still inhibited virus infection”.
Turning to `NC(=O)c1ncn([C@@H]2O[C@H](CO)[C@@H](O)[C@H]2O)n1` [Ribavirin], in the data set with influenza virus [10], the “dynamics of progeny virus production” value is recorded as “became weaker” and the “inhibition of progeny virus production” value is reported as “strongly inhibited progeny virus production”. Also, the “protection of BHA from trypsin digestion” value in [1] is given as “failed to show a protective effect on BHA”. For the same compound, in data set [11], the “effect on hemolysis (negative controls)” value is “did not show any effect on hemolysis”.
